# Assay results reported in patent US9492413B2 (priority 2008, dated 2016).
# Read-outs that look alike come from different tables or passages of the source.
# What was measured:
# [1] = test system: JNK, p38 and ERK; conditions: cited from earlier work
# [2] = test system: human H5N1 isolate A/Thailand/KAN-1/2004; assay type: cell-based, influenza A virus
# [3] = test system: IP10; conditions: mouse, in vivo
# [4] = test system: JNK, p38 and ERK
# [5] = test system: H5N1 virus (MB1)
# [6] = human, in vivo
# [7] = test system: IFN-gamma; conditions: mouse, in vivo
# [8] = test system: viral ribonucleoprotein complexes (RNP)
# [9] = test system: viral proteins M1, NP, NS1 and PB1
# [10] = test system: A/FPV/Bratislava/79 (H7N7)
# [11] = test system: poly-ADP-ribose polymerase (PARP)
# [12] = test system: H7N1 virus (FPV)
Molecule,"virus-induced activation of JNK, p38 and ERK [1]",inhibition of virus titers [2],reduction of IP10 m-RNA expression ([3]; ip) [%],reduction of IP10 m-RNA expression ([3]; iv) [%],"virus-induced activation of JNK, p38 and ERK [4]",reduction of replication [5],"improvement of the symptoms, all other patients [6]","improvement of the symptoms, first day after the administration [6]",reduction of IFN-gamma m-RNA expression ([7]; ip) [%],reduction of IFN-gamma m-RNA expression ([7]; iv) [%],retention of viral RNP complexes [8],"accumulation of the viral proteins M1, NP, NS1 and PB1 [9]",inhibition of virus multiplication (virus titers versus time) [10],band of the cleaved PARP (caspase activation) [11],reduction of replication [12]
"CC(=O)Oc1ccccc1C(=O)O [acetylsalicylic acid, reference compound]",is not inhibited,efficient inhibition of the virus titers of the H5N1 strain by several decimal powers,–,–,–,–,–,–,–,–,–,–,–,–,–
lysine-glycine-acetylsalicylate [LG-acetylsalicylate],–,efficient inhibition of the virus titers of the H5N1 strain by several decimal powers,26,62,is not blocked,more than 99%,improvement of the symptoms occurred on the 3rd day,significant improvement of the symptoms,50,68,efficient retention of viral RNP complexes,is not inhibited,equally efficiently inhibits the virus multiplication,efficiently reduced,more than 99%
